Assay results: ChEMBL document CHEMBL4371068, “Potent inhibitors of malarial P. Falciparum protein kinase G: Improving the cell activity of a series of imidazopyridines” (Bioorg Med Chem Lett, 2019)

Assay: Apparent permeability of the compound in phosphate buffer saline at 50 to 200 uM after 5 hrs by PAMPA
Type: ADME

SMILES: CN(C)Cc1ccc2c(c1)nc(-c1ccc(F)cc1)n2-c1ccnc(N)n1
- Papp at 5 h, up to 200 µM: 3.2 ×10⁻⁶ cm/s

SMILES: CN(C)Cc1ccc2c(-c3ccnc(N)n3)c(-c3ccc(F)cc3)nn2c1
- Papp at 5 h, up to 200 µM: 18.5 ×10⁻⁶ cm/s

SMILES: CN(C)CCNc1ccc2nc(-c3ccc(F)cc3)c(-c3ccnc(N)n3)n2n1
- Papp at 5 h, up to 200 µM: 1 ×10⁻⁶ cm/s

SMILES: CN1CCC(n2cc(Nc3nccc(-c4c(-c5ccc(F)cc5)nc5ccccn45)n3)cn2)CC1
- Papp at 5 h, up to 200 µM: 12.4 ×10⁻⁶ cm/s

SMILES: Fc1ccc(-c2nc3ccccn3c2-c2ccnc(NC3CCOCC3)n2)cc1
- Papp at 5 h, up to 200 µM: 14.5 ×10⁻⁶ cm/s

SMILES: CN(C)Cc1ccn2c(-c3ccnc(N)n3)c(-c3ccc(F)cc3)nc2n1
- Papp at 5 h, up to 200 µM: 11.8 ×10⁻⁶ cm/s

SMILES: CN(C)Cc1cc2nc(-c3ccc(F)cc3)c(-c3ccnc(N)n3)n2cn1
- Papp at 5 h, up to 200 µM: 5.8 ×10⁻⁶ cm/s

SMILES: CN(C)CCCNc1nccc(-c2c(-c3ccc(F)cc3)nc3ccccn23)n1
- Papp at 5 h, up to 200 µM: 8.2 ×10⁻⁶ cm/s
